Legend:
barnyardgrass [1] = assay: Test C preemergence; type: in vivo, Echinochloa crusgalli
Procedure, shortened: (§1)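 Visual injury ratings on a 0–100 scale (100 = complete control) were made against untreated controls 10 days after treatment in the greenhouse. Compounds, formulated with surfactant in non-phytotoxic solvent, were sprayed on soil preemergence or onto one- to two-leaf plants 2–10 cm tall postemergence.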

blackgrass [2] = assay: Test C preemergence; type: in vivo, Alopecurus myosuroides
Procedure, shortened: as §1

corn [3] = assay: Test C preemergence; type: in vivo, Zea mays
Procedure, shortened: as §1

green foxtail [4] = assay: Test C preemergence; type: in vivo, Setaria viridis
Procedure, shortened: as §1

kochia [5] = assay: Test C preemergence; type: in vivo, Bassia scoparia
Procedure, shortened: as §1

oat, wild [6] = assay: Test C preemergence; type: in vivo, Avena fatua
Procedure, shortened: as §1

pigweed, palmer [7] = assay: Test C preemergence; type: in vivo, Amaranthus palmeri
Procedure, shortened: as §1

ragweed [8] = assay: Test C preemergence; type: in vivo, Ambrosia artemisiifolia
Procedure, shortened: as §1

ryegrass, Italian [9] = assay: Test C preemergence; type: in vivo, Lolium multiflorum
Procedure, shortened: as §1

soybean [10] = assay: Test C preemergence; type: in vivo, Glycine max
Procedure, shortened: as §1

wheat [11] = assay: Test C preemergence; type: in vivo, Triticum aestivum
Procedure, shortened: as §1

barnyardgrass [12] = assay: Test C postemergence; type: in vivo, Echinochloa crusgalli; details: 10 days, 0 to 100 scale (0 no effect, 100 complete control)
Procedure, shortened: as §1

blackgrass [13] = assay: Test C postemergence; type: in vivo, Alopecurus myosuroides; details: 10 days, 0 to 100 scale (0 no effect, 100 complete control)
Procedure, shortened: as §1

corn [14] = assay: Test C postemergence; type: in vivo, Zea mays; details: 10 days, 0 to 100 scale (0 no effect, 100 complete control)
Procedure, shortened: as §1

green foxtail [15] = assay: Test C postemergence; type: in vivo, Setaria viridis; details: 10 days, 0 to 100 scale (0 no effect, 100 complete control)
Procedure, shortened: as §1

kochia [16] = assay: Test C postemergence; type: in vivo, Bassia scoparia; details: 10 days, 0 to 100 scale (0 no effect, 100 complete control)
Procedure, shortened: as §1

oat, wild [17] = assay: Test C postemergence; type: in vivo, Avena fatua; details: 10 days, 0 to 100 scale (0 no effect, 100 complete control)
Procedure, shortened: as §1

pigweed, palmer [18] = assay: Test C postemergence; type: in vivo, Amaranthus palmeri; details: 10 days, 0 to 100 scale (0 no effect, 100 complete control)
Procedure, shortened: as §1

ragweed [19] = assay: Test C postemergence; type: in vivo, Ambrosia artemisiifolia; details: 10 days, 0 to 100 scale (0 no effect, 100 complete control)
Procedure, shortened: as §1

ryegrass, Italian [20] = assay: Test C postemergence; type: in vivo, Lolium multiflorum; details: 10 days, 0 to 100 scale (0 no effect, 100 complete control)
Procedure, shortened: as §1

soybean [21] = assay: Test C postemergence; type: in vivo, Glycine max; details: 10 days, 0 to 100 scale (0 no effect, 100 complete control)
Procedure, shortened: as §1

wheat [22] = assay: Test C postemergence; type: in vivo, Triticum aestivum; details: 10 days, 0 to 100 scale (0 no effect, 100 complete control)
Procedure, shortened: as §1

galium = assay: Test C postemergence; type: in vivo, Galium aparine; details: 10 days, 0 to 100 scale (0 no effect, 100 complete control)
Procedure, shortened: as §1

horseweed = assay: Test C postemergence; type: in vivo, Erigeron canadensis; details: 10 days, 0 to 100 scale (0 no effect, 100 complete control)
Procedure, shortened: as §1

barnyardgrass [23] = assay: Test D flooded paddy test; type: in vivo, Echinochloa crus-galli; details: 250 g ai/ha, applied to paddy water, visual rating after 13 to 14 days, scale 0 to 100 (0 no effect, 100 complete control)
Procedure, shortened: (§2)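 Plants grown to the 2-leaf stage; pots flooded to 3 cm above soil at treatment and held at that depth throughout. Test compounds applied directly to the paddy water. After 13 to 14 days in a greenhouse, response was rated visually versus controls on a 0 (no effect) to 100 (complete control) scale.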

ducksalad = assay: Test D flooded paddy test; type: in vivo, Heteranthera limosa; details: 250 g ai/ha, applied to paddy water, visual rating after 13 to 14 days, scale 0 to 100 (0 no effect, 100 complete control)
Procedure, shortened: as §2

rice = assay: Test D flooded paddy test; type: in vivo, Oryza sativa; details: 250 g ai/ha, applied to paddy water, visual rating after 13 to 14 days, scale 0 to 100 (0 no effect, 100 complete control)
Procedure, shortened: as §2

sedge, umbrella = assay: Test D flooded paddy test; type: in vivo, Cyperus difformis; details: 250 g ai/ha, applied to paddy water, visual rating after 13 to 14 days, scale 0 to 100 (0 no effect, 100 complete control)
Procedure, shortened: as §2

[24] = 500 g ai/ha, preemergence, 0 to 100 scale (0 no effect, 100 complete control)
[25] = Preemergence, 125 g ai/ha, 0 to 100 scale, 0 no effect, 100 complete control

SMILES: CCOCC1CN(C(=O)c2cc(-n3cnc(C(C)(C)C)n3)ccc2OC)c2cccc(Cl)c2O1 (stereo not shown) [Compound 379]
- Barnyardgrass plant response rating (barnyardgrass [1]; [24]): 100
- Plant response rating, Barnyardgrass (barnyardgrass [1]; [25]): 60
- Blackgrass plant response rating (blackgrass [2]; [24]): 0
- Plant response rating, Blackgrass (blackgrass [2]; [25]): 0
- Corn plant response rating (corn [3]; [24]): 30
- Plant response rating, Corn (corn [3]; [25]): 30
- Foxtail, Green plant response rating (green foxtail [4]; [24]): 100
- Plant response rating, Foxtail, Green (green foxtail [4]; [25]): 80
- Kochia plant response rating (kochia [5]; [24]): 100
- Plant response rating, Kochia (kochia [5]; [25]): 80
- Oat, Wild plant response rating (oat, wild [6]; [24]): 80
- Plant response rating, Oat, Wild (oat, wild [6]; [25]): 30
- Pigweed, Palmer plant response rating (pigweed, palmer [7]; [24]): 100
- Plant response rating, Pigweed, Palmer (pigweed, palmer [7]; [25]): 100
- Ragweed plant response rating (ragweed [8]; [24]): 80
- Plant response rating, Ragweed (ragweed [8]; [25]): 0
- Ryegrass, Italian plant response rating (ryegrass, Italian [9]; [24]): 90
- Plant response rating, Ryegrass, Italian (ryegrass, Italian [9]; [25]): 70
- Soybean plant response rating (soybean [10]; [24]): 90
- Plant response rating, Soybean (soybean [10]; [25]): 90
- Wheat plant response rating (wheat [11]; [24]): 40
- Plant response rating, Wheat (wheat [11]; [25]): 20
- Plant response rating, Barnyardgrass (barnyardgrass [12]; 500 g ai/ha, postemergence): 60
- Plant response rating, Barnyardgrass (barnyardgrass [12]; Postemergence, 125 g ai/ha): 30
- Plant response rating, Blackgrass (blackgrass [13]; 500 g ai/ha, postemergence): 30
- Plant response rating, Blackgrass (blackgrass [13]; Postemergence, 125 g ai/ha): 30
- Plant response rating, Corn (corn [14]; 500 g ai/ha, postemergence): 50
- Plant response rating, Corn (corn [14]; Postemergence, 125 g ai/ha): 30
- Plant response rating, Foxtail, Green (green foxtail [15]; 500 g ai/ha, postemergence): 20
- Plant response rating, Foxtail, Green (green foxtail [15]; Postemergence, 125 g ai/ha): 20
- Plant response rating, Kochia (kochia [16]; 500 g ai/ha, postemergence): 90
- Plant response rating, Kochia (kochia [16]; Postemergence, 125 g ai/ha): 90
- Plant response rating, Oat, Wild (oat, wild [17]; 500 g ai/ha, postemergence): 10
- Plant response rating, Oat, Wild (oat, wild [17]; Postemergence, 125 g ai/ha): 0
- Plant response rating, Pigweed, Palmer (pigweed, palmer [18]; 500 g ai/ha, postemergence): 100
- Plant response rating, Pigweed, Palmer (pigweed, palmer [18]; Postemergence, 125 g ai/ha): 80
- Plant response rating, Ragweed (ragweed [19]; 500 g ai/ha, postemergence): 90
- Plant response rating, Ragweed (ragweed [19]; Postemergence, 125 g ai/ha): 30
- Plant response rating, Ryegrass, Italian (ryegrass, Italian [20]; 500 g ai/ha, postemergence): 50
- Plant response rating, Ryegrass, Italian (ryegrass, Italian [20]; Postemergence, 125 g ai/ha): 30
- Plant response rating, Soybean (soybean [21]; 500 g ai/ha, postemergence): 100
- Plant response rating, Soybean (soybean [21]; Postemergence, 125 g ai/ha): 100
- Plant response rating, Wheat (wheat [22]; 500 g ai/ha, postemergence): 20
- Plant response rating, Wheat (wheat [22]; Postemergence, 125 g ai/ha): 10
- Plant response rating, Galium (galium; 500 g ai/ha, postemergence): 100
- Plant response rating, Galium (galium; Postemergence, 125 g ai/ha): 70
- Plant response rating, Horseweed (horseweed; 500 g ai/ha, postemergence): 30
- Plant response rating, Horseweed (horseweed; Postemergence, 125 g ai/ha): 0
- Plant response rating, Barnyardgrass (Flood) (barnyardgrass [23]): 35
- Plant response rating, Ducksalad (Flood) (ducksalad): 55
- Plant response rating, Rice (Flood) (rice): 15
- Plant response rating, Sedge, Umbrella (Flood) (sedge, umbrella): 65

Reference: US20260262643A1, “HERBICIDAL BENZOXAZINES” (FMC CORPORATION, priority 2022, published 2026)
